Here are results for eleven compounds from Sander's compilation of Henry's law constants (doi:10.1021/es00033a018).

The data set can be described thus: Henry solubility constant Hcp at 298.15 K (mol/(m3 Pa)). The note with it: reference: Wright et al. (1992).

Turning to `BrCBr` [dibromomethane], the “Henry solubility constant Hcp” value is 0.011.
On to `CC(Cl)(Cl)Cl` [1,1,1-trichloroethane], for which the “Henry solubility constant Hcp” value amounted to 0.0006.
Then `ClC=CCCl` [1,3-dichloropropene], with 0.0064; and `CC(Cl)CCl` (stereo unspecified) [1,2-dichloropropane], with 0.0036.
For `ClC=C(Cl)Cl` [trichloroethene] the value was 0.0011; for `ClCCl` [dichloromethane], 0.0039.
For the compound `ClCC(Cl)Cl` [1,1,2-trichloroethane], the “Henry solubility constant Hcp” value was 0.011.
For `BrC(Br)Br` [tribromomethane] the value was 0.024; for `ClC(Cl)(Cl)Cl` [tetrachloromethane], 0.00029; for `ClC(Cl)C(Cl)Cl` [1,1,2,2-tetrachloroethane], 0.022.
For `ClCC(Cl)(Cl)Cl` [1,1,1,2-tetrachloroethane], the “Henry solubility constant Hcp” value is 0.004.
